Columns and labels:
HIV-1 RT = HIV-1 RT (Human immunodeficiency virus type 1 group M subtype B, UniProt P04585); assay: HIV-1 Reverse Transcriptase Assay (RNA-dependent DNA polymerase activity, SPA); type: biochemical; conditions: 30° C., 30 min, 10% DMSO
Protocol: RNA-dependent DNA polymerase activity was measured using a biotinylated primer oligonucleotide and tritiated dNTP substrate. Newly synthesized DNA was quantified by capturing the biotinylated primer molecules on streptavidin coated Scintillation Proximity Assay (SPA) beads (Amersham). The sequences of the polymerase assay substrate were: 18 nt DNA primer, 5′-Biotin/GTC CCT GTT CGG GCG CCA-3′; 47 nt RNA template, 5′-GGGUCUCUCUGGUUAGACCACUCUAGCAGUGGCGCCCGAACAGGGAC-3′. The biotinylated DNA primer was obtained from the Integrated DNA Technologies Inc. and the RNA template was synthesized by Dharmacon. The DNA polymerase assay (final volume 50 μl) contained 32 nM biotinylated DNA primer, 64 nM RNA substrate, dGTP, dCTP, dTTP (each at 5 μM), 103 nM [^3H]-dATP (specific activity=[…]), in 45 mM Tris-HCl, pH 8.0, 45 mM NaCl, 2.7 mM Mg(CH3COO)2, 0.045% Triton X-100 w/v, 0.9 mM EDTA. The reactions contained 5 ul of serial compound dilutions in 100% DMSO for IC50 determination and the final concentrations of DMSO were 10%. Reactions were initiated by the addition of 30 μl of the HIV-RT enzyme (final concentrations of 1-3 nM). Protein concentrations were adjusted to provide linear product formation for at least 30 min of incubation. After incubation at 30° C. for 30 min, the reaction was quenched by addition of 50 μl of 200 mM EDTA (pH 8.0) and […] SA-PVT SPA beads (Amersham, RPNQ0009, reconstituted in 20 mM Tris-HCl, pH 8.0, 100 mM EDTA and 1% BSA). The beads were left to settle overnight and the SPA signals were counted in a 96-well top counter-NXT (Packard).

[1] = test system: HXB2-strain of HIV in MT4 cells; assay: Antiviral assay: protection of HIV-infected MT4 cells from cell death (MTT); type: cell-based; conditions: Human immunodeficiency virus 1, 120 h; MT4 cells infected with HXB2-strain of HIV, 5 days, MTT viability
Protocol: Anti-HIV antiviral activity was assessed using an adaptation of the method of Pauwels et al. {Pauwels et al., J Virol Methods 1988 20:309-321}. The method is based on the ability of compounds to protect HIV-infected T lymphoblastoid cells (MT4 cells) from cell-death mediated by the infection. The endpoint of the assay was calculated as the concentration of compound at which the cell viability of the culture was preserved by 50% (‘50% inhibitory concentration’, IC50). The cell viability of a culture was determined by the uptake of soluble, yellow 3-[4,5-dimethylthiazol-2-yl]-2,5-diphenyltetrazolium bromide (MTT) and its reduction to a purple insoluble formazan salt. After solubilization, spectrophotometric methods were employed to measure the amount of formazan product. […]
A fresh solution of 5 mg/mL MTT was prepared in 0.01 M phosphate buffered saline, pH 7.2 and 20 microliters added to each culture. […] When the formazan deposit was fully solubilized by further mixing, the absorbance (OD) of the cultures was measured at 540 nm and 690 nm wavelength (690 nm readings were used as blanks for artifacts between wells). The percent protection for each treated culture was then calculated from the equation: […]

Structure (SMILES) | IC50 (HIV-1 RT) | IC50 [1] | melting point
Cc1cn(Cc2ccc(Br)c(Oc3cc(Cl)cc(C#N)c3)c2F)c(=O)[nH]c1=O [Compound I-2, 3-[6-Bromo-2-fluoro-3-(5-methyl-2,4-dioxo-3,4-dihydro-2H-pyrimidin-1-ylmethyl)-phenoxy]-5-chloro-benzonitrile] | 3.9 nM | 3.1 nM | 223.1 to 224.2 °C
N#Cc1cc(Cl)cc(Oc2c(Br)ccc(CN3CC(=O)NC3=O)c2F)c1 [Compound I-20, 3-[6-Bromo-3-(2,4-dioxo-imidazolidin-1-ylmethyl)-2-fluoro-phenoxy]-5-chloro-benzonitrile] | 9 nM | 4.2 nM | 131.5 to 132.8 °C
CC1CN(Cc2ccc(Br)c(Oc3cc(Cl)cc(C#N)c3)c2F)C(=O)NC1=O (stereo not drawn) [Compound I-29, 3-[6-Bromo-2-fluoro-3-(5-methyl-2,4-dioxo-tetrahydro-pyrimidin-1-ylmethyl)-phenoxy]-5-chloro-benzonitrile] | 85.8 nM |  | 227.8 to 228.6 °C
N#Cc1cc(Cl)cc(Oc2c(Br)ccc(Cn3cc(O)c(=O)[nH]c3=O)c2F)c1 [Compound I-30, 3-[6-Bromo-2-fluoro-3-(5-hydroxy-2,4-dioxo-3,4-dihydro-2H-pyrimidin-1-ylmethyl)-phenoxy]-5-chloro-benzonitrile] | 34.5 nM |  | 238 to 240 °C
Cn1cc(Cc2ccc(Br)c(Oc3cc(Cl)cc(C#N)c3)c2F)c(=O)[nH]c1=O [Compound I-31, 3-[6-Bromo-2-fluoro-3-(1-methyl-2,4-dioxo-1,2,3,4-tetrahydro-pyrimidin-5-ylmethyl)-phenoxy]-5-chloro-benzonitrile] | 5.9 nM |  | 226 to 227 °C

From patent US8026362B2, “Non-nucleoside reverse transcriptase inhibitors” (Roche Palo Alto LLC, priority 2007, dated 2011)
